Where “and” joins values, the source holds several entries; their conditions need not be identical. Identical values can stand only once.
Assays:
[1] = Plasma nalbuphine after subcutaneous nalbuphine in dogs; format: in vivo
[2] = after i.v. dosing in dogs; cited from earlier work
[3] = Phase I clinical trial of F8 formulation (safety, tolerability, pharmacokinetics); details: for AUC0-inf / AUC0-t / Cmax / T1/2 / Tmax: plasma nalbuphine, mean
Protocol: It was designed to evaluate safety and local tolerability and assess the pharmacokinetics of SDE following single dose intramuscular injection. The study enrolled a total of 28 healthy male subjects. All subjects were randomized to 5 cohorts. Cohort 1 (N=4) was treated with single dose Nubain® 17 mg (0.85 mL) via intramuscular injection. Cohorts 2-5 (N=6) were either treated with placebo (N=2) or treated with single dose SDE (N=4) at 75 mg (1 mL), 100 mg (1.33 mL), 125 mg (1.67 mL), and 150 mg (2 mL), respectively.
Heparinized blood samples were obtained before and at various time points following single dose administration of study medication. […] The subsequent analysis of the data involved non-compartmental pharmacokinetics analysis, i.e., Cmax, Tmax, AUC0-t, AUC0-inf, and T1/2.

[4] = Bioavailability study of F8 formulation and Bain (whole blood nalbuphine); format: in vivo, human; details: mean, SDE 150 mg single IM as F8 formulation
Protocol: A total of twelve subjects completed the crossover study. […] There was a minimum 5-day washout period between period I and period II. In period I, the blood samples were drawn prior to the dosing, and 0.083, 0.25, 0.5, 1, 1.5, 2, 3, 4, 6, 8, 12, and 24 hours after dosing.

[5] = test system: postoperative pain following hemorrhoidectomy; test: Phase 2/3 clinical study of F8 formulation; format: in vivo, human
Protocol: The subjects were divided into two groups, of which Group 1 (n=103) was treated with a single dose of intramuscular SDE 150 mg (2 mL), and Group 2 (n=106) was treated with a single dose of intramuscular placebo (2 mL). All subjects were given a single dose of SDE or placebo via intramuscular injection 24±12 hours before hemorrhoid surgery. The subjects were allowed to take rescue medication and monitored for 7 days after dosing. Statistical analyses were performed on the data to compare the two groups.
The primary efficacy endpoint was pain assessment calculated as the area under the curve of VAS pain intensity scores through 48 hours after surgery. The secondary efficacy endpoints included pain assessment measured with VAS; time from the end of operation to the first rescue medication dosing; the consumption of oral ketorolac. Pain intensity was assessed right before the first use of PCA ketorolac, and at 1±0.1, 2±0.1, 3±0.1, 4±0.25, 8±0.5, 12±0.5, 16±0.5, 20±0.5, 24±1, 28±1, 32±2, 36±2, 40±2, 44±2, 48±2 hours after the surgery, and was assessed during Days 3-7 in the morning and evening, as well as during special events such as bowel movements.
For the calculation of AUC, data were imputed with the use of the windowed worst observation carried forward plus last observation carried forward method. For subjects who used rescue medication for pain relief, their VAS scores recorded within the window of ketorolac medication (6 hours, which is one half-life of ketorolac) were replaced by the “worst” observation (i.e., the highest score before taking ketorolac), hereafter called “adjusted VAS scores.”
The AUC0-24 and AUC0-48 of the mean adjusted VAS scores of SDE and placebo groups were calculated by using the trapezoidal method and summarized in Table 10.

[6] = Solubility test of SDE in solvents and solvent systems (UPLC); format: physicochemical
Protocol: As used herein, the term “solubility” means the maximum amount of a solute (e.g., an active ingredient or a prodrug thereof) that can be dissolved in a given amount of a solvent at a particular temperature. Unless otherwise specified, the solubilities presented herein are at room temperature (e.g., 25-28° C.). The term “saturated concentration” refers to the concentration at which no more of a solute will dissolve in a solvent and additional amounts of solute will appear as a separate phase (e.g., as a precipitate).
Each of the solvent systems was prepared by mixing each component with the exact volume (pi) corresponding to the w/w % listed in Table 15. About 500 μl of each of the solvent systems was prepared and was vortexed for 3 minutes or more to fully mix each component. An appropriate amount of SDE was added into 250 μl of each of the solvent systems and the resulting mixtures were sonicated for 10 minutes. If the previously added SDE was completely dissolved, an additional 4-8 mg of SDE was added into the mixture and which was then sonicated for another 10 minutes. The step of adding 4-8 mg of SDE was repeated until the mixture was saturated to show undissolved SDE precipitates. All of the mixtures were sonicated for at least 30 minutes, and then centrifuged to collect the supernatants. The supernatants were treated with acetonitrile and then subjected to UPLC analysis.
Five groups of solvent systems containing 40% by weight of sesame oil were respectively prepared according to the method of Example 6 by using the compositions as listed in Table 17; and among them, five different alcohols (i.e., ethanol, 1-propanol, 2-propanol, 1-butanol, and tert-butanol) were used in the five groups. SDE was dissolved in each of the solvent systems till saturation by following the method of Example 6. The SDE concentrations in the supernatants collected from each of the samples (i.e. the saturated SDE concentration, or SDE solubility) were respectively determined by UPLC using the method of Example 6.

[7] = dog, plasma, subcutaneous, 0.5 mg/kg
[8] = SDE 75 mg single IM as F8 formulation
[9] = SDE 100 mg single IM as F8 formulation
[10] = SDE 125 mg single IM as F8 formulation
[11] = SDE 150 mg single IM as F8 formulation
[12] = 48 hours post-operation, SDE 150 mg IM (F8)
[13] = mITT, SDE 150 mg IM (F8) 24±12 hours before hemorrhoid surgery

Which concentration at 3 h [1, 7] does the source give for `Oc1ccc2c3c1O[C@H]1[C@@H](O)CC[C@@]4(O)[C@@H](C2)N(CC2CCC2)CC[C@]314` [nalbuphine] here?
The concentration at 3 h was 9.9 ng/mL.

What about the concentration at 4 h [1, 7] of the same molecule?
The concentration at 4 h was 5.2 ng/mL.

What about the “effective plasma concentration of nalbuphine for analgesia in dog” value ([1]; inferred from 4 h plasma level and reported 4 h analgesia) of the same molecule?
Its value is “about 5 ng/mL”.

What about the “elimination half-life of nalbuphine” value [2] of the same molecule?
The value was “about 1.2 hour”.

With `O=C(CCCCCCCCC(=O)Oc1ccc2c3c1O[C@H]1[C@@H](O)CC[C@@]4(O)[C@@H](C2)N(CC2CCC2)CC[C@]314)Oc1ccc2c3c1O[C@H]1[C@@H](O)CC[C@@]4(O)[C@@H](C2)N(CC2CCC2)CC[C@]314` [SDE, sebacoyl dinalbuphine ester] as the molecule, how does the duration of action ([3]; cohort receiving 125 mg SDE, from plasma nalbuphine above 3 ng/mL) read?
The duration of action was “about 6.5 days”.

And the duration of action ([3]; cohort receiving 150 mg SDE, from plasma nalbuphine above 3 or 1 ng/mL)?
The duration of action was 6 to 12 days.

And the tolerability ([3]; escalating single IM doses of SDE up to 150 mg)?
The tolerability was “well tolerated”.

What about the AUC0-inf [3, 8] of the same molecule?
Its AUC0-inf is 692.27 ng·h/mL.

And the AUC0-t [3, 8]?
The AUC0-t was 647.84 ng·h/mL.

What about the Cmax [3, 8] of the same molecule?
The Cmax was 5.45 ng/mL.

And the T1/2 [3, 8]?
Its T1/2 is 55.75 h.

And the Tmax [3, 8]?
Its Tmax is 66 h.

What about the AUC0-inf [3, 9] of the same molecule?
The AUC0-inf was 936.17 ng·h/mL.

What about the AUC0-t [3, 9] of the same molecule?
The AUC0-t was 811.34 ng·h/mL.

What about the Cmax [3, 9] of the same molecule?
Its Cmax is 5.65 ng/mL.

What about the T1/2 [3, 9] of the same molecule?
The T1/2 was 85.45 h.

And the Tmax [3, 9]?
Its Tmax is 66 h.

And the AUC0-inf [3, 10]?
The AUC0-inf was 1219.71 ng·h/mL.

What about the AUC0-t [3, 10] of the same molecule?
Its AUC0-t is 1047.45 ng·h/mL.

What about the Cmax [3, 10] of the same molecule?
Its Cmax is 7.31 ng/mL.

What about the T1/2 [3, 10] of the same molecule?
Its T1/2 is 89.83 h.

And the Tmax [3, 10]?
Its Tmax is 45 h.

What about the AUC0-inf [3, 11] of the same molecule?
The AUC0-inf was 1353.16 ng·h/mL.

And the AUC0-t [3, 11]?
Its AUC0-t is 1214.98 ng·h/mL.

And the Cmax [3, 11]?
The Cmax was 9.81 ng/mL.

What about the T1/2 [3, 11] of the same molecule?
Its T1/2 is 73.4 h.

What about the Tmax [3, 11] of the same molecule?
Its Tmax is 60 h.

What about the “difference between SDE and placebo groups in number of AEs, subjects with AEs, severity and relatedness” value ([3]; single IM dose 75-150 mg) of the same molecule?
Its value is “No significant difference”.

What about the “severity of adverse events (AEs)” value ([3]; single IM dose, healthy male subjects) of the same molecule?
The value was “mild”.

And the AUC0-inf [4]?
The AUC0-inf was 1832.0 ng·h/mL.

And the AUC0-t [4]?
Its AUC0-t is 1687.4 ng·h/mL.

And the Cmax [4]?
Its Cmax is 15.40 ng/mL.

And the MRT [4]?
Its MRT is 149.38 h.

What about the T1/2 [4] of the same molecule?
Its T1/2 is 83.16 h.

What about the Tmax [4] of the same molecule?
Its Tmax is 64.00 h.

What about the “AUC0-final of adjusted VAS scores, Mean ± SD” value ([5]; 0 hr to 7 days after hemorrhoid operation, mITT, SDE 150 mg IM (F8)) of the same molecule?
The value was 630.79±350.90.

And the “consumption of oral ketorolac, Mean” value [5, 12]?
The value was 51.36 mg.

And the “consumption of oral ketorolac, Median” value [5, 12]?
Its value is 40.00 mg.

And the “time for the first use of post-operational analgesic, Mean (SD)” value ([5]; mITT, SDE 150 mg IM (F8))?
The value was 12.57 hour and 12.57 (1.68) hour.

And the “AUC0-24 of adjusted VAS pain intensity scores, Mean ± SD” value [5, 13]?
The value was 109.42 ± 55.04.

And the “AUC0-48 of adjusted VAS pain intensity scores, Mean ± SD” value [5, 13]?
Its value is 209.93±111.26.

What about the “adjusted VAS score compared with placebo” value ([5]; throughout the 7 days after the hemorrhoid operation) of the same molecule?
The value was “lower than the placebo group”.

What about the “effect of C2-C4 alcohol on the solubility of SDE (FIG. 11)” value ([6]; 2.5-30% by weight of the alcohol in solvent system with 40% sesame oil) of the same molecule?
The value was “significantly increased”.

What about the “solubility of SDE in the formulations” value ([6]; 10% by weight of tert-Butanol replacing benzyl benzoate) of the same molecule?
Its value is “about 210 mg/mL”.

And the “increase of the solubility of SDE in the solvent systems” value ([6]; 10% of alkyl alcohol added)?
The value was “at least 30%”.

What about the “Solubility of SDE in the solvent” value ([6]; castor oil) of the same molecule?
The value was “about 13 mg/mL”.

And the “Solubility of SDE in the solvent” value ([6]; cottonseed oil)?
Its value is “about 6 mg/mL”.

What about the “solubility of SDE in ethanol, 1-propanol, or t-butanol” value ([6]; each alcohol alone) of the same molecule?
The value was 10000 to 30000 µg/mL.

And the “solubility of SDE when added to the mixture of benzyl benzoate and sesame oil” value (“solubility of SDE when added” below) ([6]; weight ratio of benzyl benzoate to sesame oil about 1.1)?
Its value is “about 70 mg/mL”.

And the “solubility of SDE when added” value ([6]; weight ratio of benzyl benzoate to sesame oil about 1.5)?
The value was “about 150 mg/mL”.

What about the “solubility of SDE when added” value ([6]; weight ratio of benzyl benzoate to sesame oil about 2.3) of the same molecule?
The value was “about 200 mg/mL”.

And the “solubility of SDE when added” value ([6]; weight ratio of benzyl benzoate to sesame oil about 9)?
The value was “greater than 300 mg/mL”.

And the “solubility of SDE in the formulations” value ([6]; without alkyl alcohol)?
The value was “about 160 mg/mL”.

From US11241424B2, “Pharmaceutical formulations for sustained release of sebacoyl dinalbuphine ester” (LUMOSA THERAPEUTICS CO., LTD., priority 2015, dated 2022)
